# Molecular target: T1, 0N4R Tau fibrils (Homo sapiens, UniProt P10636)
# T1 construct: made in house
# Assay: ^3H-THK5117 competition binding to tau fibrils in vitro
# Conditions: 3 nM [^3H]-THK5117, recombinant 0N4R tau fibrils; average if run more than once
# Method: Preparation of recombinant 0N4R Tau fibrils was performed as previously described in Morozova, O. A., Biochemistry (2013), Vol., 52(40), pages 6960-6967. Competition binding experiments to 0N4R Tau fibrils were performed by incubating increasing concentrations [10^−10-10^−6 M] of the Example compounds of the invention, or the known tau specific ligand PBB3 (PBB3 was synthesized as previously described in M. Maruyama, et al, Neuron 2013, 79, 1094-1108) or MK6240 (Novandi Chemistry AB), in the presence of 3 nM of the known tau ligand [^3H]-THK5117 (Novandi Chemistry) and 0.2 mM 0N4R tau fibrils in binding buffer (50 mM Tris-HCl, pH 7.4, 0.1% BSA) for 1 h in the dark, and at 22° C. The incubation was terminated by filtration through a Whatman GF/B glass filter (Whatman International, Kent, UK) using a Brandel cell harvester. The filter was then washed rapidly four times with 3 mL of ice-cold wash buffer (5 mM Tris-HCl, 0.25 mM NaCl, 5% EtOH), and equilibrated for 1 h in scintillation vials containing 5 mL of Ultima Gold scintillation fluid before being analysed using a Liquid Scintillation Analyzer.
# The results are shown in Table 2 in the column labeled “Tau IC50”.
# Relative selectivity for tau compared to Aβ for the exemplified compounds was calculated using the results for the [^3H]-THK5117 tau and [^3H]-AZD2184 Aβ assays described above. The calculated results are shown in Table 2 in the column labeled “Selectivity for tau relative to Aβ”.
# T1 sequence (P10636 1-383 isoform P10636-6): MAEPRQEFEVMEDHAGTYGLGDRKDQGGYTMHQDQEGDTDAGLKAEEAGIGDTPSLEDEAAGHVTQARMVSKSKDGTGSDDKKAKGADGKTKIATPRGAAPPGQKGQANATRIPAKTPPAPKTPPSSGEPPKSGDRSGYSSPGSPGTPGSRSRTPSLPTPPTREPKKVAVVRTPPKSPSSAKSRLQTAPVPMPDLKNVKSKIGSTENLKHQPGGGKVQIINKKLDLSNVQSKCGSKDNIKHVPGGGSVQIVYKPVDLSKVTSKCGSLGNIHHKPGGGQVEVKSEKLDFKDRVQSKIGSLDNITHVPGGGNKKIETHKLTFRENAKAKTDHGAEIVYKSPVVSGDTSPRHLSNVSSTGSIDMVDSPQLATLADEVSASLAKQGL
row,SMILES,IC50
1,FCCC1CCN(c2ccc(-c3nc4ccccc4o3)cn2)CC1 [Compound 13],13 nM
2,OCCOC1CCN(c2ncc(-c3cc4ccccc4o3)cn2)CC1 [Compound 31],15 nM
3,FCCC1CCN(c2ccc(-c3nc4ccccc4s3)cn2)CC1 [Compound 9],6 nM
4,CC1CCN(c2ccc(-c3nc4ccccc4o3)cn2)CC1 [Compound 16],59 nM
5,Cc1ccc(S(=O)(=O)OCCC2CCN(c3ccc(-c4nc5ccccc5s4)cn3)CC2)cc1 [Compound 8],8 nM
6,FCC1CCN(c2ccc(-c3nc4ccccc4s3)cn2)CC1 [Compound 2],7 nM
7,NC(=O)c1ccc2nc(-c3cnc(N4CCC(CCO)CC4)nc3)sc2c1 [Compound 41],10 nM
8,OCCC1CCN(c2ccc(-c3nc4ccc(OCC(O)CF)cc4s3)cn2)CC1 (stereo not shown) [Compound 37],14 nM
9,CS(=O)(=O)OCCC1CCN(c2ccc(-c3nc4cnccc4o3)cn2)CC1 [Compound 19],76 nM
10,COC1CCN(c2ccc(-c3nc4ccccc4o3)cn2)CC1 [Compound 15],39 nM
11,OCC1CCN(c2ccc(-c3nc4ccccc4s3)cn2)CC1 [Compound 1],19 nM
12,c1ccc2oc(-c3ccc(N4CCCCC4)nc3)nc2c1 [Compound 14],22 nM
13,OC1CCN(c2ccc(-c3nc4ccccc4s3)cn2)CC1 [Compound 4],43 nM
14,CS(=O)(=O)OCCC1CCN(c2ccc(-c3nc4ccccc4o3)cn2)CC1 [Compound 12],17 nM
15,OCCC1CCN(c2ccc(-c3nc4ccccc4o3)cn2)CC1 [Compound 11],64 nM
16,CS(=O)(=O)OCCC1CCN(c2ncc(-c3nc4ccc(C(N)=O)cc4s3)cn2)CC1 [Compound 42],15 nM
17,FCCC1CCN(c2ccc(-c3nc4cnccc4o3)cn2)CC1 [Compound 20],60 nM
18,N#CC1CCN(c2ccc(-c3nc4ccccc4o3)cn2)CC1 [Compound 17],73 nM
19,OCCC1CCN(c2ccc(-c3nc4cnccc4o3)cn2)CC1 [Compound 18],39 nM
20,COS(=O)(=O)CCC1CCN(c2ncc(-c3cc4ccccc4o3)cn2)CC1 [Compound 29],32 nM

# The next lines start with the values.
row,IC50,SMILES
1,19 nM,O=C(NCCF)c1ccc2nc(-c3cnc(N4CCC(CCO)CC4)nc3)sc2c1 [Compound 61]
2,13 nM,"COc1ccc2[nH]c(-c3ccc(N4CCC(CCO)CC4)nc3)cc2c1 [Compound 51, 2-{1-[5-(5-Methoxy-1H-indol-2-yl)pyridin-2-yl]piperidin-4-yl}ethan-1-ol]"
3,14 nM,OCC1CCN(c2ccc(-c3cc4cc(O)cnc4[nH]3)c(F)n2)CC1 [Compound 75]
4,5 nM,CCOC(=O)c1ccc2nc(-c3cnc(N4CCC(CCO)CC4)nc3)sc2c1 [Compound 59]
5,14 nM,COc1cnc2[nH]c(-c3ccc(N4CCC(CO)CC4)nc3F)cc2c1 [Compound 74]
6,20 nM,"NC(=O)c1ccc2cc(-c3cnc(N4CCC(CF)CC4)nc3)[nH]c2c1 [Compound 70, 2-{2-[4-(Fluoromethyl)piperidin-1-yl]pyrimidin-5-yl}-1H-indole-6-carboxamide]"
7,7 nM,OCC1CCN(c2ccc(-c3nc4ccc(O)cc4s3)cn2)CC1 [Compound 55]
8,24 nM,"CNC(=O)c1ccc2cc(-c3ccc(N4CCC(CO)CC4)nc3F)[nH]c2c1 [Compound 64, 2-{2-Fluoro-6-[4-(hydroxymethyl)piperidin-1-yl]pyridin-3-yl}-N-methyl-1H-indole-6-carboxamide]"
9,41 nM,"OCC1CCN(c2ccc(-c3cc4cccnc4[nH]3)c(F)n2)CC1 [Compound 73, [1-(6-Fluoro-5-{1H-pyrrolo[2,3-b]pyridin-2-yl}pyridin-2-yl)piperidin-4-yl]methanol]"
10,49 nM,"OCCC1CCN(c2ncc(-c3nc4ccccc4[nH]3)cn2)CC1 [Compound 49, 2-{1-[5-(1H-1,3-Benzodiazol-2-yl)pyrimidin-2-yl]piperidin-4-yl}ethan-1-ol]"
11,4 nM,"OCCC1CCN(c2ccc(-c3cc4ccccc4s3)cn2)CC1 [Compound 50, 2-{1-[5-(1-Benzothiophen-2-yl)pyridin-2-yl]piperidin-4-yl}ethan-1-ol]"
